Assay results taken from patent EP2735339B1, “Extract and isolated compounds from Drechslera rostrata and/or Eurotium tonophilum for use as anti-leishmania-major agents” (King Saud University, priority 2012, dated 2014).
Values after ≈ are worked out from the molar mass of the structure shown. Where two headings read alike, the source gives them in different places.

Tests used:
leishmania [1] = conditions: against leishmania; cited from earlier work
Leishmania amazonensis = conditions: growth of Leishmania amazonensis; cited from earlier work
[2] = system: Promastigotes of the reference strain of Leishmania major; assay: In vitro anti-leishmanial activity, MTT assay on promastigotes; format: cell-based; conditions: 72 hours, 26 °C
Procedure: Parasite: Promastigotes of the reference strain of Leishmania major were grown in RPMI-1640 medium supplemented with 10.000 Unites penicillin 10 µg of treptomycin/ml and 10 % heat inactivated fetal calf serum in 50 ml Nunc flasks at 26 °C in a dark environment. All experiments were performed with parasite cultures in the stationary phase by allowing them to grow for seven days.
Promastigotes were resuspended in fresh medium to achieve 10^6 parasites/ml and were seeded in 96-well Nunc culture plate, each well containing 100 µl medium with different concentrations of total extracts for both fungi (Drechslera rostrata and Eurotium tonophilum) in addition to the four isolated compounds. Control wells received only culture medium. The plates were incubated in 26 °C for 72 hours and Promastigotes viability was evaluated by the quantitative colorimetric MTT assay. The alteration of MTT to the formazan product by the mitochondrial electron transport chain is an indicator of cell viability, and a decrease in the amount of MTT converted indicated toxicity to the cell.
Briefly, the MTT labeling reagent was added to each well to the final concentration of 0.25 mg/ml. After incubation for 3 hours at 26 °C, DMSO was added to dissolve the formazan crystals and obtain a homogeneous blue solution suitable for measurement of the absorbance with an enzyme-linked immunosorbent assay plate reader (wave length 492).
Percent growth inhibition of the parasite was calculated by the following formula: % of inhibition = ((OD control-OD drugs))/(OD control) X 100 [formula]
The concentration inhibiting 50 % of the parasite growth (IC50) was calculated after evaluating percent growth inhibition at different concentrations. Reference compound was Pentostam.
Stock solutions of the total extracts , compounds, plus control drugs, were prepared at a concentration of 20 mg mL-1 in DMSO (Sigma, UK), and diluted to appropriate concentrations prior to assays. IC50 values were calculated with MSXLFIT (IDBS, UK) Djalma et al., J. Braz. Chem. Soc. Vol. 20, No. 4, 644-651, (2009).

Leishmania major = assay: In vivo anti-leishmanial activity, lesion size in infected mice under oral treatment; conditions: for Mean + SD lesion size(mm), day 1 of treatment: day 1 of oral treatment; for Mean + SD lesion size(mm), day 1 of treatment / Mean + SD lesion size(mm), day 4 of treatment / Mean + SD lesion size(mm), day 8 of treatment / Mean + SD lesion size(mm), day 11 of treatment / Mean + SD lesion size(mm), day 15 of treatment / Mean + SD lesion size(mm), day 18 of treatment / Mean + SD lesion size(mm), day 25 of treatment / Mean + SD lesion size(mm), day 28 of treatment: mice infected with L.major, n = 6; for Mean + SD lesion size(mm), day 4 of treatment: day 4 of oral treatment; for Mean + SD lesion size(mm), day 8 of treatment: day 8 of oral treatment; for Mean + SD lesion size(mm), day 11 of treatment: day 11 of oral treatment; for Mean + SD lesion size(mm), day 15 of treatment: day 15 of oral treatment; for Mean + SD lesion size(mm), day 18 of treatment: day 18 of oral treatment; for Mean + SD lesion size(mm), day 25 of treatment: day 25 of oral treatment; for Mean + SD lesion size(mm), day 28 of treatment: day 28 of oral treatment
Procedure: Balb/c mice ([…]) males were provided by Girls collage of science, Zoology department, King Saud University, Riyadh, KSA). The animals were housed in standard plastic cages and were maintained on standard feed and water ad libitum.
Each mouse was inoculated in the lumbar area with 10^7 of stationary phase Leishmania major suspended in 0.1 ml RPMI medium. The mice were kept at the animal house for 3-4 weeks till the lesion was observed. Extracts were administrated orally (400 mg/kg mouse body weight) daily until complete recovery from the lesion. Liver functions tests and histopathological examination of organs (liver, spleen and kidney) were done at the end of study.

leishmania [3] = conditions: antileishmanial activity; cited from earlier work
Leishmania spp = conditions: growth of Leishmania spp; cited from earlier work

Compound	Mean + SD lesion size(mm), day 1 of treatment (Leishmania major)	Mean + SD lesion size(mm), day 4 of treatment (Leishmania major)	Mean + SD lesion size(mm), day 8 of treatment (Leishmania major)	Mean + SD lesion size(mm), day 11 of treatment (Leishmania major)	Mean + SD lesion size(mm), day 15 of treatment (Leishmania major)	Mean + SD lesion size(mm), day 18 of treatment (Leishmania major)	Mean + SD lesion size(mm), day 25 of treatment (Leishmania major)	Mean + SD lesion size(mm), day 28 of treatment (Leishmania major)	further results
C=CCCC/C=C\C/C=C\CCCCCCCc1cc(O)cc(O)c1 [5-heptadeca-8'Z,11'Z,16-trienylresorcinol]									IC50 (leishmania [1]): 3.6 mg/L (≈ 10.5 µM)
C=C1C(=O)O[C@H]2C[C@@](C)(O)C3=CC[C@](C)(O)[C@@H]3C[C@H]12 [guaianolide]									IC50 (Leishmania amazonensis): 2.6 mg/L (≈ 9.84 µM)
OCC(O)C(O)C(O)C(O)CO (stereo not shown) [Compound H1, Hexane-1,2,3,4,5,6-hexol]	9.95±1.5 mm	7.19±1.2 mm	4.85±1.2 mm	2.78±1.7 mm	1.21+1.1 mm	zero	zero	zero	IC50 ([2]; read-out: IC50): 6.5 mg/L (≈ 35.7 µM)
O.O.O.O.O.O.O.O.O.O=C([O-])[C@@H]1[O][Sb](=[O])([O][Sb]2(=[O])[O][C@H]([C@H](O)CO)[C@H](O)[C@H](C(=O)[O-])[O]2)[O][C@H]([C@H](O)CO)[C@@H]1O.[Na+].[Na+].[Na+] (stereo partly shown) [Pentostam, reference compound]	9.56±1.3 mm	8.98±2.0 mm	7.45±1.8 mm	6.9±1.3 mm	5.39±3.1 mm	4.32±2.1 mm	3.30±2.1 mm	2.61±2.5 mm	complete heeling after 28 days (Leishmania major; standard drug, 28 days): did not show complete heeling
Diisooctylphthalate [Compound H2]	9.13±1.2 mm	6.18±1.2 mm	4.15±1.2 mm	1.11±1.2 mm	0.21±1.5 mm	zero	zero	zero	IC50 [2]: 3.2 mg/L
1,8-Dihydroxy-3-methoxy-6-methyl-anthraquinone [Compound H3]	9.23±1.4 mm	7.28±2.1 mm	5.15±1.4 mm	3.41±1.8 mm	2.31±2.6 mm	zero	zero	zero	IC50 [2]: 19.38 mg/L
C/C=C(/C)C(=O)OC[C@H]1C2=C(C[C@H]3[C@H]4C5=C(C(=O)C(C)=C(OC)C5=O)[C@H](O)[C@@H](CN13)N4C)C(=O)C(C)=C(OC)C2=O [Renieramycin A]									IC50 (leishmania [3]): 0.2 µg·mL
C=C1CCC[C@H]2[C@]1(CC[C@@]1(C)C3=CCCC(C)(C)[C@@H]3CC[C@@H]1C)CC[C@H](C)[C@]2(C)Cc1cc(OS(=O)(=O)O)ccc1OS(=O)(=O)O [isoakaterpin]									IC50 (Leishmania spp): 1.05 µM
